Assay results published in US20230130621A1, “APPLICATION OF AGENT IN PREPARATION OF MEDICINE FOR TREATING/INHIBITING PSORIASIS” (priority 2021, published 2023).

Experiments:
endothelial cells = experiment: dsDNA in exosomes released by endothelial cells stimulated by cytokines; type: cell-based; conditions: cytokine stimulation; FIG. 17, 18
Description: The dsDNA in exosomes released by endothelial cells stimulated by cytokines TNFα and IL17 was detected.

mouse = experiment: IL-1b injection into ears of the mouse; type: in vivo; conditions: injected into ears of the mouse; FIG. 26, 27
Description: dsDNA-AIM2 finally released the cytokine IL-1b to act on the body.

Substance	dsDNA content in exosomes released by endothelial cells (endothelial cells)	psoriasis-like response in a mouse (skin phenotype, spleen, pathology) (mouse)
IL17: cytokine IL17, clinically relevant cytokine for psoriasis	significantly stimulated the dsDNA content in exosomes released by endothelial cells	–
TNFα	significantly stimulated the dsDNA content in exosomes released by endothelial cells	–
IL-1b: cytokine interleukin 1b	–	cause psoriasis-like skin phenotype, spleen enlargement and pathological changes
